Experimental data reported in patent publication US9060515B2, “Heterocyclic urea compounds” (BIOTA EUROPE LTD, priority 2011, dated 2015).
In brackets after ≈: the same amount, converted by molar mass.

Assays:
Assay type in all cases: cell-based
[1] = tested on: H. influenzae (ATCC 49247); assay: Antibacterial susceptibility testing (MIC, broth microdilution or agar dilution), H. influenzae; settings: Haemophilus influenzae, ATCC49247; read-out: H. influenzae (ATCC 49247) minimal inhibitory concentration (MIC)
Procedure: Compounds of the invention were tested for antimicrobial activity by susceptibility testing in liquid or on solid media. MICs for compounds against each strain were determined by the broth microdilution or agar dilution method according to the guidelines of the Clinical Laboratories and Standards Institute, formerly the National Committee for Clinical Laboratory Standards (Clinical Laboratories and Standards Institute. Methods for Dilution Antimicrobial Susceptibility Tests for Bacteria That Grow Aerobically; Approved Standard—Seventh Edition. Document M7-A7. CLSI, Wayne, Pa., 2006; Clinical Laboratories and Standards Institute. The Gram positive bacterial strains tested include S. aureus (Staphylococcus aureus (Isolate ID ATCC 29213)), E. faecalis (Enterococcus faecalis (Isolate ID ATCC 29212)) and S. pyogenes (Streptococcus pyogenes (Isolate ID ATCC 51339)). The Gram negative bacterial strains tested include H. influenzae (Haemophilus influenzae (Isolate ID ATCC 49247)).

[2] = tested on: S. aureus (ATCC 29213); assay: Antibacterial susceptibility testing (MIC, broth microdilution or agar dilution), S. aureus; settings: Staphylococcus aureus, ATCC29213; read-out: S. aureus (ATCC 29213) minimal inhibitory concentration (MIC)
How it was run: (§1)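 MICs by CLSI (M7-A7) broth microdilution or agar dilution, against reference ATCC strains as listed.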

[3] = tested on: S. pyogenes (ATCC 51339); assay: Antibacterial susceptibility testing (MIC, broth microdilution or agar dilution), S. pyogenes; settings: Streptococcus pyogenes, ATCC51339; read-out: S. pyogenes (ATCC 51339) minimal inhibitory concentration (MIC)
How it was run: as §1

[4] = tested on: E. faecalis (ATCC 29212); assay: Antibacterial susceptibility testing (MIC, broth microdilution or agar dilution), E. faecalis; settings: Enterococcus faecalis, ATCC29212; read-out: E. faecalis (ATCC 29212) minimal inhibitory concentration (MIC)
How it was run: as §1

Row | MIC [1] | MIC [2] | MIC [3] | MIC [4] | SMILES
1 | 2 µg/mL (≈ 4.47 µM) | ≤ 1 µg/mL | ≤ 1 µg/mL | – | CCNC(=O)Nc1cc(Nc2ccccc2)c(C(=O)Nc2ccc(CCC(=O)O)cc2)cn1 [Compound 78, 3-[4-[[4-anilino-6-(ethylcarbamoylamino)pyridine-3-carbonyl]amino]phenyl]propanoic acid]
2 | ≤ 1 µg/mL | ≤ 1 µg/mL | ≤ 1 µg/mL | ≤ 1 µg/mL | CCNC(=O)Nc1cc(Nc2cccc(F)c2)c(C(=O)Nc2ccc(CC(C)(C)C(=O)O)cc2)cn1 [Compound 181, 3-{4-[({6-[(ethylcarbamoyl)amino]-4-[(3-fluorophenyl)amino]pyridin-3-yl}carbonyl)amino]phenyl}-2,2-dimethylpropanoic acid]
3 | ≤ 1 µg/mL | ≤ 1 µg/mL | ≤ 1 µg/mL | ≤ 1 µg/mL | CCNC(=O)Nc1cc(Nc2cc(F)c(F)c(F)c2)c(C(=O)Nc2ccc(CCC(=O)O)cc2)cn1 [Compound 189]
4 | ≤ 1 µg/mL | ≤ 1 µg/mL | ≤ 1 µg/mL | ≤ 1 µg/mL | CCNC(=O)Nc1cc(Nc2ccc(F)c(F)c2)c(C(=O)Nc2ccc(CCC(=O)O)cc2)cn1 [Compound 220, 3-{4-[({4-[(3,4-difluorophenyl)amino]-6-[(ethylcarbamoyl)amino]pyridin-3-yl}carbonyl)amino]phenyl}propanoic acid]
5 | ≤ 1 µg/mL | ≤ 1 µg/mL | – | ≤ 1 µg/mL | CCNC(=O)Nc1cc(Nc2ccc(C)c(F)c2)c(C(=O)Nc2ccc(CCC(=O)O)cc2)cn1 [Compound 222, 3-{4-[({6-[(ethylcarbamoyl)amino]-4-[(3-fluoro-4-methylphenyl)amino]pyridin-3-yl}carbonyl)amino]phenyl}propanoic acid]
6 | ≤ 1 µg/mL | ≤ 1 µg/mL | – | ≤ 1 µg/mL | CCNC(=O)Nc1cc(Nc2ccc(F)c(C)c2)c(C(=O)Nc2ccc(CCC(=O)O)cc2)cn1 [Compound 223, 3-{4-[({6-[(ethylcarbamoyl)amino]-4-[(4-fluoro-3-methylphenyl)amino]pyridin-3-yl}carbonyl)amino]phenyl}propanoic acid]
7 | ≤ 1 µg/mL | ≤ 1 µg/mL | – | ≤ 1 µg/mL | CCNC(=O)Nc1cc(Nc2ccc(F)cc2F)c(C(=O)Nc2ccc(CCC(=O)O)cc2)cn1 [Compound 230, 3-{4-[({4-[(2,4-difluorophenyl)amino]-6-[(ethylcarbamoyl)amino]pyridin-3-yl}carbonyl)amino]phenyl}propanoic acid]
8 | 4 µg/mL (≈ 8.57 µM) | 4 µg/mL (≈ 8.57 µM) | – | ≤ 1 µg/mL | CCNC(=O)Nc1cc(Nc2cncc(F)c2)c(C(=O)Nc2ccc(CCC(=O)O)cc2)cn1 [Compound 236]
9 | 2 µg/mL (≈ 3.49 µM) | ≤ 1 µg/mL | – | ≤ 1 µg/mL | CCNC(=O)Nc1cc(Nc2cccc(S(F)(F)(F)(F)F)c2)c(C(=O)Nc2ccc(CCC(=O)O)cc2)cn1 [Compound 237, 3-(4-{[(6-[(ethylcarbamoyl)amino]-4-{[3-(pentafluorothio)phenyl]amino}pyridin-3-yl)carbonyl]amino}phenyl)propanoic acid]
10 | ≤ 1 µg/mL | ≤ 1 µg/mL | – | ≤ 1 µg/mL | CCNC(=O)Nc1cc(Nc2cccc(C(F)(F)F)c2)c(C(=O)Nc2ccc(CCC(=O)O)cc2)cn1 [Compound 240, 3-(4-{[(6-[(ethylcarbamoyl)amino]-4-{[3-(trifluoromethyl)phenyl]amino}pyridin-3-yl)carbonyl]amino}phenyl)propanoic acid]

Continued, compound first:

Row | SMILES | MIC [1] | MIC [2] | MIC [3] | MIC [4]
11 | CCNC(=O)Nc1cc(Nc2ccccc2)c(C(=O)Nc2ccc(CC(=O)O)cc2)cn1 [Compound 71, 2-(4-(6-(3-ethylureido)-4-(phenylamino)nicotinamido)phenyl)acetic acid] | 2 µg/mL (≈ 4.61 µM) | 16 µg/mL (≈ 36.9 µM) | ≤ 1 µg/mL | –
12 | CCNC(=O)Nc1cc(Nc2ccccc2)c(C(=O)Nc2ccc(CCC(=O)OC)cc2)cn1 [Compound 77] | 2 µg/mL (≈ 4.33 µM) | ≤ 1 µg/mL | ≤ 1 µg/mL | –
13 | CCNC(=O)Nc1cc(Nc2ccccc2)c(C(=O)Nc2ccnc(C)c2)cn1 [Compound 90, 6-(3-ethylureido)-N-(2-methylpyridin-4-yl)-4-(phenylamino)nicotinamide] | 8 µg/mL (≈ 20.5 µM) | ≤ 1 µg/mL | ≤ 1 µg/mL | –
14 | CCNC(=O)Nc1cc(Nc2ccccc2)c(C(=O)Nc2cc(C(=O)O)n(C)c2)cn1 [Compound 103, 4-(6-(3-ethylureido)-4-(phenylamino)nicotinamido)-1-methyl-1H-pyrrole-2-carboxylic acid] | 4 µg/mL (≈ 9.47 µM) | 4 µg/mL (≈ 9.47 µM) | ≤ 1 µg/mL | –
15 | CCNC(=O)Nc1cc(Nc2ccccc2)c(C(=O)Nc2ccc(CCC(=O)N(C)OC)cc2)cn1 [Compound 123, 6-(3-Ethylureido)-N-(4-(3-(methoxy(methyl)amino)-3-oxopropyl)phenyl)-4-(phenylamino)nicotinamide] | 8 µg/mL (≈ 16.3 µM) | ≤ 1 µg/mL | ≤ 1 µg/mL | –
16 | CCNC(=O)Nc1cc(Nc2ccccc2)c(C(=O)Nc2ccc(CC(C)(C)C(=O)O)cc2)cn1 [Compound 130, 3-(4-(6-(3-ethylureido)-4-(phenylamino)nicotinamido)phenyl)-2,2-dimethylpropanoic acid] | 4 µg/mL (≈ 8.41 µM) | ≤ 1 µg/mL | ≤ 1 µg/mL | –
17 | CCNC(=O)Nc1cc(Nc2ccnc(OC)c2)c(C(=O)Nc2ccc(CC(C)(C)C(=O)O)cc2)cn1 [Compound 187, 3-{4-[({6-[(ethylcarbamoyl)amino]-4-[(2-methoxypyridin-4-yl)amino]pyridin-3-yl}carbonyl)amino]phenyl}-2,2-dimethylpropanoic acid] | ≤ 1 µg/mL | ≤ 1 µg/mL | – | ≤ 1 µg/mL
18 | CCNC(=O)Nc1cc(Nc2ccc(C#N)cc2)c(C(=O)Nc2ccc(CC(C)(C)C(=O)O)cc2)cn1 [Compound 188, 3-{4-[({4-[(4-cyanophenyl)amino]-6-[(ethylcarbamoyl)amino]pyridin-3-yl}carbonyl)amino]phenyl}-2,2-dimethylpropanoic acid] | ≤ 1 µg/mL | ≤ 1 µg/mL | ≤ 1 µg/mL | ≤ 1 µg/mL
19 | CCNC(=O)Nc1cc(Nc2ccc(C(=O)OC)cc2)c(C(=O)Nc2ccc(CC(C)(C)C(=O)O)cc2)cn1 [Compound 196] | ≤ 1 µg/mL | ≤ 1 µg/mL | ≤ 1 µg/mL | ≤ 1 µg/mL
20 | CCNC(=O)Nc1cc(Nc2ccccc2)c(C(=O)Nc2ccc(-n3cccc3C(=O)O)cc2)cn1 [Compound 198, 1-{4-[({6-[(ethylcarbamoyl)amino]-4-(phenylamino)pyridin-3-yl}carbonyl)amino]phenyl}-1H-pyrrole-2-carboxylic acid] | 4 µg/mL (≈ 8.26 µM) | 8 µg/mL (≈ 16.5 µM) | – | ≤ 1 µg/mL
21 | CCNC(=O)Nc1cc(Nc2cccc(C#N)c2)c(C(=O)Nc2ccc(CC(C)(C)C(=O)O)cc2)cn1 [Compound 199, 3-{4-[({4-[(3-cyanophenyl)amino]-6-[(ethylcarbamoyl)amino]pyridin-3-yl}carbonyl)amino]phenyl}-2,2-dimethylpropanoic acid] | 2 µg/mL (≈ 4 µM) | 2 µg/mL (≈ 4 µM) | – | ≤ 1 µg/mL
22 | CCNC(=O)Nc1cc(Nc2ccc(C#N)cc2)c(C(=O)Nc2ccc(CN3CCOCC3)cc2)cn1 [Compound 204, 4-[(4-cyanophenyl)amino]-6-[(ethylcarbamoyl)amino]-N-[4-(morpholin-4-ylmethyl)phenyl]pyridine-3-carboxamide] | 4 µg/mL (≈ 8.01 µM) | ≤ 1 µg/mL | – | ≤ 1 µg/mL
23 | CCNC(=O)Nc1cc(Nc2ccccc2)c(C(=O)Nc2ccc(CS(=O)(=O)NC)cc2)cn1 [Compound 210, 6-[(ethylcarbamoyl)amino]-N-{4-[(methylsulfamoyl)methyl]phenyl}-4-(phenylamino)pyridine-3-carboxamide] | 4 µg/mL (≈ 8.29 µM) | 2 µg/mL (≈ 4.14 µM) | – | ≤ 1 µg/mL
24 | CCNC(=O)Nc1cc(Nc2ccccc2)c(C(=O)Nc2ccc(S(N)(=O)=O)cc2)cn1 [Compound 231, 6-[(ethylcarbamoyl)amino]-4-(phenylamino)-N-(4-sulfamoylphenyl)pyridine-3-carboxamide] | 4 µg/mL (≈ 8.8 µM) | 4 µg/mL (≈ 8.8 µM) | – | ≤ 1 µg/mL
25 | CCNC(=O)Nc1cc(Nc2ccccc2)c(C(=O)Nc2ccc(NS(C)(=O)=O)cc2)cn1 [Compound 232, 6-[(ethylcarbamoyl)amino]-N-{4-[(methylsulfonyl)amino]phenyl}-4-(phenylamino)pyridine-3-carboxamide] | 4 µg/mL (≈ 8.54 µM) | 2 µg/mL (≈ 4.27 µM) | – | ≤ 1 µg/mL
26 | CCNC(=O)Nc1cc(Nc2cc(F)cc(F)c2)c(C(=O)Nc2ccc(C3CC3C(=O)O)cc2)cn1 (centres unmarked) [Compound 238, 2-{4-[({4-[(3,5-difluorophenyl)amino]-6-[(ethylcarbamoyl)amino]pyridin-3-yl}carbonyl)amino]phenyl}cyclopropanecarboxylic acid] | ≤ 1 µg/mL | ≤ 1 µg/mL | – | ≤ 1 µg/mL
27 | CCNC(=O)Nc1cc(Nc2cc(F)cc(F)c2)c(C(=O)Nc2ccc(CC(C)(C)C(=O)O)cc2)cn1 [Compound 239, 3-{4-[({4-[(3,5-difluorophenyl)amino]-6-[(ethylcarbamoyl)amino]pyridin-3-yl}carbonyl)amino]phenyl}-2,2-dimethyl propanoic acid] | ≤ 1 µg/mL | ≤ 1 µg/mL | – | ≤ 1 µg/mL
